We go through 23 compounds from patent US20070207952A1, “Long Acting Biologically Active Conjugates” (priority 2003, published 2007).

Assay [1] has as its system HIV-1 IIIB. Description: Antiviral cytotoxicity (MTT) assay with MT4 cells, HIV-1 IIIB. Conditions: MT-4 cells, 5 days, average of 2 or 3 experiments. The format is cell-based.
Assay [2] deals with HIV NL4-3. Description: Antiviral cytotoxicity (MTT) assay with MT4 cells, HIV NL4-3. Conditions: MT-4 cells, 5 days, average of 2 or 3 experiments. Format: cell-based, HIV-1. The protocol: Antiviral potency of the peptides was analyzed against HIV-1 HXB2 or NLA-3 strains using a cytotoxicity assay with MT4 cells as previously described (ref 1-3) with minor modifications. MT-4 cells (1.5×10^4/ml) were exposed to 200 50% tissue culture infective doses (TCID50) of viruses in the presence of various concentrations of test compound in 96 well microtiter plates and incubated at 37° C. for 5 days. Cytotoxicity of HIV was measured by the addition of 3-(4,5-dimethylthiazol-2-yl)-2,5-diphenytetrazolium bromide (MMI) solution to each well to a final concentration of 0.75 mg/ml, and incubation for 1 hour a 37° C. After incubation, cells were dissolved in isopropanoyrriton-X 100/HCl (1000:50:25) solution. Absorbance was monitored in a microplate reader (Spectramax, Molecular Devices) at 540 rm and 690 nm. MT-4 cells were obtained from the AIDS Research and Reference Reagent Program (ARRRP, Division of AIDS, NIAID, NIH: MT-4 from Dr. D. Richman). Cells were propagated in RPMI 1640 growth medium supplemented with 10% fetal bovine serum, 50U of penicillin and 50 μg of streptomycin per ml ([Ivitrogen, Carlsbad Calif.).

For assay [3], the target named is T1, Human plasma renin (Homo sapiens, UniProt P00797).
T1 construct: plasma renin
T1 sequence (P00797 67-406): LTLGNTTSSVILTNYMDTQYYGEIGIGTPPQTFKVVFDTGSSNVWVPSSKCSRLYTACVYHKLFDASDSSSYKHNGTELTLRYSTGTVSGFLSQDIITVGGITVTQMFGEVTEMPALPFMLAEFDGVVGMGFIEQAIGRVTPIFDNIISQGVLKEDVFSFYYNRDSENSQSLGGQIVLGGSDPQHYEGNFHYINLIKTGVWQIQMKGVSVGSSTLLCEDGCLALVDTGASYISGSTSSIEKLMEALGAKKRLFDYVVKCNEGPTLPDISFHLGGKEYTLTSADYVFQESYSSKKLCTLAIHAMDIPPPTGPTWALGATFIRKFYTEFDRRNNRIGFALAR
Conditions: cited from earlier work; for IC50: literature values.

Where a SMILES comes first, the peptide text is derived from it. Where no end group is shown, it is not given here. [ ]: non-standard residue; d: D form. The star is where a group is joined. Sta = CC(C)C[C@H](N)[C@@H](O)CC(=O)O; Nle = CCCC[C@H](N)C(=O)O; Cbz = O=C(OCc1ccccc1)*; Boc = CC(C)(C)OC(=O)*

As for `CCCC[C@H](NC(=O)[C@H](Cc1c[nH]c2ccccc12)NC(C)=O)C(=O)N[C@@H](CCC(=O)O)C(=O)N[C@@H](Cc1c[nH]c2ccccc12)C(=O)N[C@@H](CC(=O)O)C(=O)N[C@@H](CCCNC(=N)N)C(=O)N[C@@H](CCC(=O)O)C(=O)N[C@@H](CCC(N)=O)C(=O)N[C@@H](CC(N)=O)C(=O)N[C@@H](CC(N)=O)C(=O)N[C@@H](Cc1ccc(O)cc1)C(=O)N[C@H](C(=O)N[C@@H](CO)C(=O)N[C@@H](CC(C)C)C(=O)N[C@H](C(=O)N[C@@H](Cc1c[nH]cn1)C(=O)N[C@@H](CO)C(=O)N[C@@H](CC(C)C)C(=O)N[C@H](C(=O)N[C@@H](CCC(=O)O)C(=O)N[C@@H](CCC(=O)O)C(=O)N[C@@H](CO)C(=O)N[C@@H](CCC(N)=O)C(=O)N[C@@H](CC(N)=O)C(=O)N[C@@H](CCC(N)=O)C(=O)N[C@@H](CCC(N)=O)C(=O)N[C@@H](CCC(=O)O)C(=O)N[C@@H](CCCCN)C(=O)N[C@@H](CC(N)=O)C(=O)N[C@@H](CCC(=O)O)C(=O)N[C@@H](CCC(N)=O)C(=O)N[C@@H](CCC(=O)O)C(=O)N[C@@H](CC(C)C)C(=O)N[C@@H](CC(C)C)C(N)=O)[C@@H](C)CC)[C@@H](C)CC)[C@@H](C)O` [peptide 2, Ac-WXEWDREQNNYTSLIHSLIEESQNQQEKNEQELL-NH2] (Ac-W[Nle]EWDREQNNYTSLIHSLIEESQNQQEKNEQELL-NH2), the results for the IC50 in assay [1] and in assay [2] were 2.4 nM and 18 nM, respectively. Regarding `CCCC[C@H](NC(=O)[C@H](Cc1c[nH]c2ccccc12)NC(C)=O)C(=O)N[C@@H](CCC(=O)O)C(=O)N[C@@H](Cc1c[nH]c2ccccc12)C(=O)N[C@@H](CC(=O)O)C(=O)N[C@@H](CCCNC(=N)N)C(=O)N[C@@H](CCC(=O)O)C(=O)N[C@@H](Cc1c[nH]c2ccccc12)C(=O)N[C@@H](CC(N)=O)C(=O)N[C@@H](CC(N)=O)C(=O)N[C@@H](Cc1ccc(O)cc1)C(=O)N[C@H](C(=O)N[C@@H](CO)C(=O)N[C@@H](CC(C)C)C(=O)N[C@H](C(=O)N[C@@H](Cc1c[nH]cn1)C(=O)N[C@@H](CO)C(=O)N[C@@H](CC(C)C)C(=O)N[C@H](C(=O)N[C@@H](CCC(=O)O)C(=O)N[C@@H](CCC(=O)O)C(=O)N[C@@H](CO)C(=O)N[C@@H](CCC(N)=O)C(=O)N[C@@H](CC(N)=O)C(=O)N[C@@H](CCC(N)=O)C(=O)N[C@@H](CCC(N)=O)C(=O)N[C@@H](CCC(=O)O)C(=O)N[C@@H](CCCCN)C(=O)N[C@@H](CC(N)=O)C(=O)N[C@@H](CCC(=O)O)C(=O)N[C@@H](CCC(N)=O)C(=O)N[C@@H](CCC(=O)O)C(=O)N[C@@H](CC(C)C)C(=O)N[C@@H](CC(C)C)C(N)=O)[C@@H](C)CC)[C@@H](C)CC)[C@@H](C)O` [peptide 3, Ac-WXEWDREWNNYTSLIHSLIEESQNQQEKNEQELL-NH2] (Ac-W[Nle]EWDREWNNYTSLIHSLIEESQNQQEKNEQELL-NH2), the IC50 in assay [1] worked out at 1.7 nM; in assay [2], 7.6 nM. For `CCCC[C@H](NC(=O)[C@H](Cc1c[nH]c2ccccc12)NC(C)=O)C(=O)N[C@@H](CCC(=O)O)C(=O)N[C@@H](Cc1c[nH]c2ccccc12)C(=O)N[C@@H](CC(=O)O)C(=O)N[C@@H](CCCNC(=N)N)C(=O)N[C@@H](CCC(=O)O)C(=O)N[C@H](C(=O)N[C@@H](CC(N)=O)C(=O)N[C@@H](CC(N)=O)C(=O)N[C@@H](Cc1ccc(O)cc1)C(=O)N[C@H](C(=O)N[C@@H](CO)C(=O)N[C@@H](CC(C)C)C(=O)N[C@H](C(=O)N[C@@H](Cc1c[nH]cn1)C(=O)N[C@@H](CO)C(=O)N[C@@H](CCC(N)=O)C(=O)N[C@H](C(=O)N[C@@H](CCC(=O)O)C(=O)N[C@@H](CCC(=O)O)C(=O)N[C@@H](CO)C(=O)N[C@@H](CCC(N)=O)C(=O)N[C@@H](CC(N)=O)C(=O)N[C@@H](CCC(N)=O)C(=O)N[C@@H](CCC(N)=O)C(=O)N[C@@H](CCC(=O)O)C(=O)N[C@@H](CCCCN)C(=O)N[C@@H](CC(N)=O)C(=O)N[C@@H](CCC(=O)O)C(=O)N[C@@H](CCC(N)=O)C(=O)N[C@@H](CCC(=O)O)C(=O)N[C@@H](CC(C)C)C(=O)N[C@@H](CC(C)C)C(N)=O)[C@@H](C)CC)[C@@H](C)CC)[C@@H](C)O)[C@@H](C)CC` [peptide 5, Ac-WXEWDREINNYTSLIHSQIEESQNQQEKNEQELL-NH2] (Ac-W[Nle]EWDREINNYTSLIHSQIEESQNQQEKNEQELL-NH2), the values for the IC50 in assay [1] and in assay [2] were 6.6 nM and 200 nM, respectively. Regarding `CCCC[C@H](NC(=O)[C@H](Cc1c[nH]c2ccccc12)NC(C)=O)C(=O)N[C@@H](CCC(=O)O)C(=O)N[C@@H](Cc1c[nH]c2ccccc12)C(=O)N[C@@H](CC(=O)O)C(=O)N[C@@H](CCCNC(=N)N)C(=O)N[C@@H](CCCCN)C(=O)N[C@H](C(=O)N[C@@H](CCC(=O)O)C(=O)N[C@@H](CCC(=O)O)C(=O)N[C@@H](Cc1ccc(O)cc1)C(=O)N[C@H](C(=O)N[C@@H](CCCCN)C(=O)N[C@@H](CCCCN)C(=O)N[C@H](C(=O)N[C@@H](CCCCN)C(=O)N[C@@H](CCCCN)C(=O)N[C@@H](CC(C)C)C(=O)N[C@H](C(=O)N[C@@H](CCC(=O)O)C(=O)N[C@@H](CCC(=O)O)C(=O)N[C@@H](CO)C(=O)N[C@@H](CCC(N)=O)C(=O)N[C@@H](CCC(=O)O)C(=O)N[C@@H](CCC(N)=O)C(=O)N[C@@H](CCC(N)=O)C(=O)N[C@@H](CCC(=O)O)C(=O)N[C@@H](CCCCN)C(=O)N[C@@H](CC(N)=O)C(=O)N[C@@H](CCC(=O)O)C(=O)N[C@@H](CCCCN)C(=O)N[C@@H](CCC(=O)O)C(=O)N[C@@H](CC(C)C)C(=O)N[C@@H](CCCCN)C(N)=O)[C@@H](C)CC)[C@@H](C)CC)[C@@H](C)O)[C@@H](C)CC` [peptide 6, Ac-WXEWDRKIEEYTKKIKKLIEESQEQQEKNEKELK-NH2] (Ac-W[Nle]EWDRKIEEYTKKIKKLIEESQEQQEKNEKELK-NH2), the IC50 in assay [1] was found to be 2.4 nM; in assay [2], 1.2 nM. Turning to Ac-(HCO-Trp)-Pro-Phe-His-Sta---Ile-NH2, the IC50 in assay [3] is 0.1 nM. Regarding Ac-HPFV[Sta]LF-NH2, the IC50 in assay [3] is 32 nM. For the compound Ac-His-Pro-Phe-His-ACHPA---Leu-Phe-NH2, the IC50 in assay [3] was 0.5 nM. Regarding Ac-WPFH[Sta]I-NH2, the IC50 in assay [3] is 16 nM.

In the case of Boc-FH[Sta]A[Sta]-OMe, the IC50 in assay [3] is 27 nM. Take “Boc-His-Pro-Phe-His-Leu(CH(OH)CH2)Val-Ile-His-OH”: the IC50 in assay [3] is 0.7 nM. Regarding Boc-Phe-His-ACHPA---Leu-AMB, the IC50 in assay [3] was 1 nM. In the case of “Boc-Phe-His-Cha-(CH2NH)Val-NH-2(S)-Me(Bu)”, the half-maximal inhibitory concentration (IC50) in assay [3] is 86 nM. For Boc-Phe-His-Sta---Ile-AMP, the IC50 in assay [3] is 6 nM. For Boc-Phe-His-Sta---Leu-AMB, the IC50 in assay [3] was 9 nM. Take Boc-Phe-His-Sta---Leu-NHCH2Ph: in assay [3], the IC50 was 26 nM.

Regarding Boc-Pro-Phe-His-Sta---Ile-AMP, in assay [3], the IC50 is 4.1 nM. In the case of Cbz-RRPFH[Sta]IHK(Boc)-OMe, in assay [3], the IC50 was 1 nM. Regarding Iva-His-Pro-Phe-His-Sta---Ala-Sta, the Ki in assay [3] (cell marked (Ki)) is 1.9 nM.

With Iva-Phe-Nle-Sta-Ala-Sta, the IC50 in assay [3] is 28 nM.

As to PEC-Phe-His-ACHPA-ILeNHC(CH2OH)2CH3, the IC50 in assay [3] was < 0.01 nM. In the case of PHPFH[Sta]IF-NH2, the IC50 in assay [3] is 3 nM. As to PHPFH[Sta]IH[dK], the IC50 in assay [3] is 26 nM.

In the case of “Pro-His-Pro-Phe-His-Leu(CH2NH)Val-Ile-His-Lys”, in assay [3], the IC50 was 10 nM.
